Source: patent publication US11072636B2, “Peptide for inhibiting angiogenesis and use thereof” (CAREGEN CO., LTD., priority 2017, dated 2021)

Key:
BAX protein = test: Expression level of pro-apoptotic BAX protein; assay type: cell-based; details: vascular endothelial cells, expression reduced by the VEGF; FIGS. 9 and 10
ERK = test: Inhibition of cell signaling pathway induced by VEGF: phosphorylation of ERK; assay type: cell-based; details: vascular endothelial cells; FIGS. 5 and 6
Procedure: (§1) Further, in order to confirm the effect of inhibiting a cell signaling pathway induced by the VEGFs by the peptides of the present invention, in a specific exemplary embodiment of the present invention, a peptide having an amino acid sequence of SEQ ID NO: 1 or SEQ ID NO: 2 was treated to vascular endothelial cells and then changes in phosphorylation of a VEGF receptor (VEGFR2), ERK, AKT and p38 induced by the VEGF were confirmed.

VEGFR2 = VEGFR2 (Homo sapiens, UniProt P35968); test: Competitive binding to the VEGF receptor; details: FIGS. 11 to 14
Chain of VEGFR2 (P35968 20-1356, species assumed): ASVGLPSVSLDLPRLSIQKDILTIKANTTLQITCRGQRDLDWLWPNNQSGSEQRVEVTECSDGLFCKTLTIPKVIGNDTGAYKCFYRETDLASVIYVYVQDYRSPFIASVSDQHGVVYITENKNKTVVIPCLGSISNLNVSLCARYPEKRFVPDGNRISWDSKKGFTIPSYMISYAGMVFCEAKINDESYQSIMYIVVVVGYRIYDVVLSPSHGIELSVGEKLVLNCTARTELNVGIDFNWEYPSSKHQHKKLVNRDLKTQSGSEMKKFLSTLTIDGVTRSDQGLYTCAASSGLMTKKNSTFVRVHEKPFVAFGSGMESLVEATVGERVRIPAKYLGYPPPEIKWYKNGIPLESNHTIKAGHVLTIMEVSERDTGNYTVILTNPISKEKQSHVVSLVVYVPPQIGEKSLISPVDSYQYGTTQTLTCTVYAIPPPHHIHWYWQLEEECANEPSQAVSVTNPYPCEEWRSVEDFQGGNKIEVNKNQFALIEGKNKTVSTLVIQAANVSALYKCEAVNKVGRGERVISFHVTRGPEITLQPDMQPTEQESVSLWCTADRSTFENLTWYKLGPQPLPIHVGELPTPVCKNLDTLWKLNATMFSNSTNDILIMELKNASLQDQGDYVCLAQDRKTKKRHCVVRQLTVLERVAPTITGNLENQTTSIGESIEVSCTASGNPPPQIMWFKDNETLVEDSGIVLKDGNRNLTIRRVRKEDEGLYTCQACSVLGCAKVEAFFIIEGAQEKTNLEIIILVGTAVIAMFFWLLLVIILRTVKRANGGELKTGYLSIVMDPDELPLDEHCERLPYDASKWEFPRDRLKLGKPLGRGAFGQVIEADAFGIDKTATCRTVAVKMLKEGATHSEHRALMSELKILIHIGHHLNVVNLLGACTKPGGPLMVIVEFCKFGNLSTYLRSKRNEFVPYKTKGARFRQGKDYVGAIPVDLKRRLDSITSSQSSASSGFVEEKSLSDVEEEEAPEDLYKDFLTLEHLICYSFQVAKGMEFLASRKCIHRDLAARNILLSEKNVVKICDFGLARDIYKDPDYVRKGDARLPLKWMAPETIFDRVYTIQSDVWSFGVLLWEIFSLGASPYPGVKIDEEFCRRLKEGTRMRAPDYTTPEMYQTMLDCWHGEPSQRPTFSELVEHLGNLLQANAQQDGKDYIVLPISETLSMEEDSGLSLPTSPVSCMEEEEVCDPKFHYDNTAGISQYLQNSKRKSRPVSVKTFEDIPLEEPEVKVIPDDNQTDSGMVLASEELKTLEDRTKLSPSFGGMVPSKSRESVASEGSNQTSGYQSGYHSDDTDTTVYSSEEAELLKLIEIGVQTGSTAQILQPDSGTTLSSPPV

p38 = test: Inhibition of cell signaling pathway induced by VEGF: phosphorylation of p38; assay type: cell-based; details: vascular endothelial cells; FIGS. 5 and 6
Procedure: as §1

eNOS = test: Expression level of vascular endothelial cell migration marker eNOS; assay type: cell-based; details: vascular endothelial cells; FIGS. 7 and 8
Description: In addition, in order to confirm an effect of inhibiting the migration the vascular endothelial cells by the peptides of the present invention, in a specific exemplary embodiment of the present invention, a change in expression level of a vascular endothelial cell migration marker ‘eNOS’ was confirmed depending on treatment of the peptide having the amino acid sequence of SEQ ID NO: 1 or SEQ ID NO: 2 to the vascular endothelial cells.

[1] = test system: human umbilical vein endothelial cells (HUVEC); test: Inhibition of proliferation of vascular endothelial cells (MTT analysis); assay type: cell-based; details: VEGF 20 ng/ml, 1% serum, 3 days, MTT absorbance 560 nm, FIGS. 1 and 2
Procedure: In order to confirm an effect of inhibiting the proliferation of vascular endothelial cells, the peptides prepared in Preparation Example 1 were treated to vascular endothelial cells, respectively, and then MTT analysis was performed.
Specifically, human umbilical vein endothelial cells (HUVEC) were inoculated in a 96-well plate at a density of 4×10^3 cells/well and then incubated overnight. Thereafter, after the medium was changed to a medium added with 1% serum, a VEGF (20 ng/ml) and the peptide of the present invention were treated for each concentration, respectively, and incubated for 3 days. However, 2 μm of sunitinib was used as a positive control group.
In addition, in order to confirm the effect of inhibiting the proliferation, 4 mg/ml of a thiozolyl blue tetrazolium bromide (MTT) solution was added to each well, formazan generated after reaction for 4 hours was dissolved by DMSO treatment, and then the absorbance was measured at a wavelength of 560 nm using a microplate reader. However, the measured absorbance values were shown by calculating relative rates based on an untreated control group.

AKT = test: Inhibition of cell signaling pathway induced by VEGF: phosphorylation of AKT; assay type: cell-based; details: vascular endothelial cells; FIGS. 5 and 6
Procedure: as §1

HUVEC cells = test: Inhibition of differentiation of vascular endothelial cells (tube formation assay); assay type: cell-based, human; details: VEGF 20 ng/ml, serum-free, 1 day, FIGS. 3 and 4
Procedure: In order to confirm the effect of inhibiting the differentiation of vascular endothelial cells, the two peptides prepared in Preparation Example 1 were treated to the vascular endothelial cells, respectively, and then a tube formation assay was performed.
Specifically, HUVEC cells were inoculated in a 96-well plate at a density of 1.5×10^3 cells/well and incubated overnight, and then the medium was replaced with serum-free media, and then a VEGF (20 ng/ml) and the peptide of the present invention were treated by concentration and incubated for 1 day. However, 2 μm of sunitinib was used as a positive control group. After the incubation was completed, the measurement of tube formation was visually observed using an optical microscope, and the number of nodules was measured together.

VEGF receptor (VEGFR2) = test: Inhibition of cell signaling pathway induced by VEGF: phosphorylation of VEGFR2; assay type: cell-based; details: vascular endothelial cells; FIGS. 5 and 6
Procedure: as §1

| Sequence | expression of the BAX protein (BAX protein) | phosphorylation of ERK induced by the VEGF (ERK) | binding to the VEGF receptor in competition with the VEGF (VEGFR2) | phosphorylation of p38 induced by the VEGF (p38) | eNOS expression increased by VEGF treatment (eNOS) | proliferation of vascular endothelial cells increased by the VEGF [1] | phosphorylation of AKT induced by the VEGF (AKT) | differentiation (tube formation) of vascular endothelial cells (HUVEC cells) | phosphorylation of VEGFR2 induced by the VEGF (VEGF receptor (VEGFR2)) |
| --- | --- | --- | --- | --- | --- | --- | --- | --- | --- |
| NKNFGYDLYR (Peptide 1) [SEQ ID NO: 1] | increased concentration-dependently | significantly inhibited | bind to a VEGFR2 competitively with the VEGF | significantly inhibited | decrease concentration-dependently | reduced | significantly inhibited | reduced | significantly inhibited |
| IHGTYKELL (Peptide 2) [SEQ ID NO: 2] | increased concentration-dependently | significantly inhibited | bind to a VEGFR2 competitively with the VEGF | significantly inhibited | decrease concentration-dependently | reduced | significantly inhibited | reduced | significantly inhibited |
